pIC50: −log10 of the molar value. Values joined by “and” are separate entries in the source; they are usually repeats but may differ in a detail not shown here. Identical values can stand only once.

The target of this assay is T1, CD73 (Homo sapiens, UniProt P21589).
T1 sequence (P21589 27-549): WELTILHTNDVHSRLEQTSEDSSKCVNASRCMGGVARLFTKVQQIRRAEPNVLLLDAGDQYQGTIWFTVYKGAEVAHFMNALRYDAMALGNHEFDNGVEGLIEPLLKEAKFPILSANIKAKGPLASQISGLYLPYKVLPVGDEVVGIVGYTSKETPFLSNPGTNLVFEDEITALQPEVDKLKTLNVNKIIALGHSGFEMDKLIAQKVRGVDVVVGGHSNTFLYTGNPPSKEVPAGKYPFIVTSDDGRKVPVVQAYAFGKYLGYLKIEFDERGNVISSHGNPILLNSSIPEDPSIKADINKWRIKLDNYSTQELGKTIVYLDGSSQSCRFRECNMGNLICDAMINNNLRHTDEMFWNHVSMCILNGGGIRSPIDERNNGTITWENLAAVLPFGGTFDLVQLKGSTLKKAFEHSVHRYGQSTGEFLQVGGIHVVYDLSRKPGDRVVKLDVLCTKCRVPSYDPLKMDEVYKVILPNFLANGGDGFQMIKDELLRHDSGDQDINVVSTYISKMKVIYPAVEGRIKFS
In words: Example A1: Biochemical Assay (CD73 inhibition, Malachite Green detection of AMP hydrolysis). Conditions: CD73 0.3208 nM, AMP 15 μM, Tris-HCl pH 7.4, Malachite Green, absorbance 620 nm; read-out: Biochemical IC50. As to the method:
Example A1: Biochemical Assay
Assay Reaction Conditions
• Assay Volume: 70 μl • Reaction Volume: 50 μl • CD73: 0.3208 nM • AMP: 15 μM • Assay Buffer: 2 5 mM Tris-HCL, pH 7.4, 0.01% Brij-35, 0.01% BSA, 5 mM MgCl2 Assay Procedure:
Made dose titration of testing compounds in assay buffer, 10 points ½ log titrations in duplicates starting at 100 μM.
Added 25 μl of CD73 to each well for a final concentration of […].
Incubated at RT for 15 min.
Added 25 μl of AMP to each well for a final concentration of 15 μM.
Incubated at RT for 10 min.
Added 10 μl of Malachite Green Reagent A, incubate at RT for 10 min.
Added 10 μl of Malachite Green Reagent B, incubate at RT for 45 min.
Read the Absorbance on Envision plate reader using excitation filter: Cy5 […].
The ability of the compounds disclosed herein to inhibit CD73 activity was quantified and the respective IC50 values were determined. Table 1 provides the biochemical IC50 values of compounds disclosed herein.

Consider `CCOP(=O)(CP(=O)(O)O)OC[C@H]1O[C@@H](n2nnc3c(NCc4ccccc4Cl)nc(Cl)nc32)[C@H](O)[C@@H]1O` (stereo partly drawn) [Example 25, (((((2R,3S,4R,5R)-5-(5-chloro-7-((2-chlorobenzyl)amino)-3H-[1,2,3]triazolo[4,5-d]pyrimidin-3-yl)-3,4-dihydroxytetrahydrofuran-2-yl)methoxy)(ethoxy)phosphoryl)methyl) phosphonic acid], for which the pIC50 (commonly the negative decadic logarithm of the IC50, by convention in mol/L) was 6.00 to 7.00.
Take `CO[P@](=O)(CP(=O)(O)O)OC[C@H]1O[C@@H](n2nnc3c(NCc4ccccc4Cl)nc(Cl)nc32)[C@H](O)[C@@H]1O` [Example 27, (((R)-(((2R,3S,4R,5R)-5-(5-Chloro-7-((2-chlorobenzyl)amino)-3H-[1,2,3]triazolo[4,5-d]pyrimidin-3-yl)-3,4-dihydroxytetrahydrofuran-2-yl)methoxy)(methoxy)phosphoryl)methyl)phosphonic acid]: the negative logarithm of the IC50 (pIC50) was 6.00 to 7.00.
Under `Nc1nc(Cl)nc2c1nnn2[C@@H]1O[C@H](COP(=O)(O)CP(=O)(O)O)[C@@H](O)[C@H]1O` [Example 4, (((((2R,3S,4R,5R)-5-(7-amino-5-chloro-3H-[1,2,3]triazolo[4,5-d]pyrimidin-3-yl)-3,4-dihydroxytetrahydrofuran-2-yl)methoxy)(hydroxy)phosphoryl)methyl) phosphonic acid] stands below 6.00; under `O=P(O)(O)CP(=O)(O)OC[C@H]1O[C@@H](n2nnc3c(N4CCCC[C@H]4c4ccccc4)nc(Cl)nc32)[C@H](O)[C@@H]1O` [Example 16, (((((2R,3S,4R,5R)-5-(5-chloro-7-((S)-2-phenylpiperidin-1-yl)-3H-[1,2,3]triazolo[4,5-d]pyrimidin-3-yl)-3,4-dihydroxytetrahydrofuran-2-yl)methoxy)(hydroxy)phosphoryl)methyl) phosphonic acid], above 7.00.
Consider `COP(=O)(CP(=O)(O)O)OC[C@H]1O[C@@H](n2nnc3c(NCc4ccccc4Cl)nc(Cl)nc32)[C@H](O)[C@@H]1O` (stereo partly drawn) [Example 26, (((((2R,3S,4R,5R)-5-(5-chloro-7-((2-chlorobenzyl)amino)-3H-[1,2,3]triazolo[4,5-d]pyrimidin-3-yl)-3,4-dihydroxytetrahydrofuran-2-yl)methoxy)(methoxy)phosphoryl)methyl) phosphonic acid], for which the pIC50 is 6.00 to 7.00.
Under `O=P(O)(O)CP(=O)(O)OC[C@H]1O[C@@H](n2nnc3c(NC[C@H]4CCOC4)nc(Cl)nc32)[C@H](O)[C@@H]1O` [Example 3, (((((2R,3S,4R,5R)-5-(5-chloro-7-((((R)-tetrahydrofuran-3-yl)methyl)amino)-3H-[1,2,3]triazolo[4,5-d]pyrimidin-3-yl)-3,4-dihydroxytetrahydrofuran-2-yl)methoxy)(hydroxy)phosphoryl)methyl) phosphonic acid] stands 6.00 to 7.00.
Consider `CN(Cc1ccccc1)c1nc(Cl)nc2c1cnn2[C@@H]1O[C@H](COP(=O)(O)CP(=O)(O)O)C[C@H]1O` [Example 47, (((((2S,4R,5R)-5-(4-(benzyl(methyl)amino)-6-chloro-1H-pyrazolo[3,4-d]pyrimidin-1-yl)-4-hydroxytetrahydrofuran-2-yl)methoxy)(hydroxy)phosphoryl)methyl) phosphonic acid], for which the pIC50 is above 7.00.
`O=P(O)(O)CP(=O)(O)OC[C@H]1O[C@@H](n2nnc3c(N4CCC[C@@H]4c4ccccc4)nc(Cl)nc32)[C@H](O)[C@@H]1O` [Example 17, (((((2R,3S,4R,5R)-5-(5-chloro-7-((R)-2-phenylpyrrolidin-1-yl)-3H-[1,2,3]triazolo[4,5-d]pyrimidin-3-yl)-3,4-dihydroxytetrahydrofuran-2-yl)methoxy)(hydroxy)phosphoryl)methyl) phosphonic acid]: the negative logarithm of the IC50 (pIC50) was 6.00 to 7.00.
To `O=P(O)(O)CP(=O)(O)OC[C@H]1O[C@@H](n2nnc3c(N4CCC[C@H]4c4ccccc4)nc(Cl)nc32)[C@H](O)[C@@H]1O` [Example 11, (((((2R,3S,4R,5R)-5-(5-chloro-7-((S)-2-phenylpyrrolidin-1-yl)-3H-[1,2,3]triazolo[4,5-d]pyrimidin-3-yl)-3,4-dihydroxytetrahydrofuran-2-yl)methoxy)(hydroxy)phosphoryl)methyl) phosphonic acid] belongs 6.00 to 7.00.
To `C[C@H](c1ccccc1)N(C)c1nc(Cl)nc2c1cnn2[C@@H]1O[C@H](COP(=O)(O)CP(=O)(O)O)[C@@H](O)[C@H]1O` [Example 42, (((((2R,3S,4R,5R)-5-(6-chloro-4-(methyl((R)-1-phenylethyl)amino)-1H-pyrazolo[3,4-d]pyrimidin-1-yl)-3,4-dihydroxytetrahydrofuran-2-yl)methoxy)(hydroxy)phosphoryl)methyl) phosphonic acid] belongs above 7.00; to `COP(=O)(CP(=O)(O)O)OC[C@H]1O[C@@H](n2nnc3c(N(C)[C@H]4CCc5ccccc54)nc(Cl)nc32)[C@H](O)[C@@H]1O` (stereo partly drawn) [Example 24, (((((2R,3S,4R,5R)-5-(5-Chloro-7-(((S)-2,3-dihydro-1H-inden-1-yl)(methyl)amino)-3H-[1,2,3]triazolo[4,5-d]pyrimidin-3-yl)-3,4-dihydroxytetrahydrofuran-2-yl)methoxy)(methoxy)phosphoryl)methyl)phosphonic acid], above 7.00; to `O=P(O)(O)CP(=O)(O)OC[C@H]1C[C@@H](n2nnc3c(NCc4ccccc4Cl)nc(Cl)nc32)[C@H](O)[C@@H]1O` [Example 2, (((((1R,2R,3S,4R)-4-(5-chloro-7-((2-chlorobenzyl)amino)-3H-[1,2,3]triazolo[4,5-d]pyrimidin-3-yl)-2,3-dihydroxycyclopentyl)methoxy)(hydroxy)phosphoryl)methyl)phosphonic acid], 6.00 to 7.00.
On to `O=P(O)(O)CP(=O)(O)OC[C@@H]1C[C@@H](O)[C@H](n2ncc3c(NCc4ccccc4Cl)nc(Cl)nc32)O1` [Example 48, (((((2S,4R,5R)-5-(6-chloro-4-((2-chlorobenzyl)amino)-1H-pyrazolo[3,4-d]pyrimidin-1-yl)-4-hydroxytetrahydrofuran-2-yl)methoxy)(hydroxy)phosphoryl)methyl) phosphonic acid], for which the pIC50 was above 7.00.
Regarding `O=P(O)(O)CP(=O)(O)OC[C@H]1CC(n2nnc3c(NC4CCc5ccccc54)nc(Cl)nc32)[C@H](O)[C@@H]1O` (stereo in doubt) [Example 35, (((((1R,2R,3S,4S)-4-(5-chloro-7-(((S)-2,3-dihydro-1H-inden-1-yl)amino)-3H-[1,2,3]triazolo[4,5-d]pyrimidin-3-yl)-2,3-dihydroxycyclopentyl)methoxy) (hydroxy)phosphoryl)methyl)phosphonic acid], the negative logarithm of the IC50 (pIC50) was > 7.00 and 6.00 to 7.00.
Under `O=P(O)(O)CP(=O)(OCC1CC1)OC[C@H]1O[C@@H](n2nnc3c(NCc4ccccc4Cl)nc(Cl)nc32)[C@H](O)[C@@H]1O` (stereo partly drawn) [Example 30, (((((2R,3S,4R,5R)-5-(5-chloro-7-((2-chlorobenzyl)amino)-3H-[1,2,3]triazolo[4,5-d]pyrimidin-3-yl)-3,4-dihydroxytetrahydrofuran-2-yl)methoxy) (cyclopropylmethoxy)phosphoryl)methyl) phosphonic acid] stands above 7.00.
As for `CN(Cc1ccccc1)c1nc(Cl)nc2c1nnn2[C@@H]1O[C@H](COP(=O)(O)CP(=O)(O)O)C[C@H]1O` [Example 22, (((((2S,4R,5R)-5-(7-(benzyl(methyl)amino)-5-chloro-3H-[1,2,3]triazolo[4,5-d]pyrimidin-3-yl)-4-hydroxytetrahydrofuran-2-yl)methoxy)(hydroxy)phosphoryl)methyl)phosphonic acid], the pIC50 was 6.00 to 7.00.
To `O=P(O)(O)CP(=O)(O)OC[C@H]1O[C@@H](n2nnc3c(NCC4CC4)nc(Cl)nc32)[C@H](O)[C@@H]1O` [Example 5, (((((2R,3S,4R,5R)-5-(5-chloro-7-((cyclopropylmethyl)amino)-3H-[1,2,3]triazolo[4,5-d]pyrimidin-3-yl)-3,4-dihydroxytetrahydrofuran-2-yl)methoxy)(hydroxy)phosphoryl)methyl) phosphonic acid] belongs 6.00 to 7.00; to `O=P(O)(O)CP(=O)(O)OC[C@H]1O[C@@H](n2nnc3c(N4CCCC[C@@H]4c4ccccc4)nc(Cl)nc32)[C@H](O)[C@@H]1O` [Example 10, (((((2R,3S,4R,5R)-5-(5-chloro-7-((R)-2-phenylpiperidin-1-yl)-3H-[1,2,3]triazolo[4,5-d]pyrimidin-3-yl)-3,4-dihydroxytetrahydrofuran-2-yl)methoxy)(hydroxy)phosphoryl)methyl) phosphonic acid], 6.00 to 7.00.

The record behind these values is US11576922B2, “CD73 inhibitors” (ORIC Pharmaceuticals, Inc., priority 2017, dated 2023).
